For one assay, the target named is T1, TKT^P (Bacillus methanolicus, UniProt Q6TV44).
T1 construct: gene tktP; full length, plasmid pBM19 gene; pET16b N-terminal His10 tag cut by factor Xa; E. coli BL21(DE3); 73 kDa, homotetramer 280 kDa
The assay is described as follows: inhibition in coupled assay I. Format: biochemical. The note with it: effector tested at 1 and 5 mM, which one gave the value is not told; R5-P and X5-P, pH 7.5, Mn2+.

Another assay concerns the target T2, TKT^C (Bacillus methanolicus, UniProt I3DZN5).
T2 construct: gene tktC; full length, chromosomal gene; pET16b N-terminal His10 tag cut by factor Xa; E. coli BL21(DE3); 73 kDa, homotetramer 280 kDa; primers tktC encode start TTG-TTT-GAT-AAA-ATT-GAC-CAT (MFDKIDH) and C-terminal ALLKQ
Put plainly: inhibition in coupled assay I. The note with it: effector tested at 1 and 5 mM, which one gave the value is not told; R5-P and X5-P, pH 7.5, Mn2+. In kind it is biochemical.

T1 sequence (Q6TV44 entry or part of it): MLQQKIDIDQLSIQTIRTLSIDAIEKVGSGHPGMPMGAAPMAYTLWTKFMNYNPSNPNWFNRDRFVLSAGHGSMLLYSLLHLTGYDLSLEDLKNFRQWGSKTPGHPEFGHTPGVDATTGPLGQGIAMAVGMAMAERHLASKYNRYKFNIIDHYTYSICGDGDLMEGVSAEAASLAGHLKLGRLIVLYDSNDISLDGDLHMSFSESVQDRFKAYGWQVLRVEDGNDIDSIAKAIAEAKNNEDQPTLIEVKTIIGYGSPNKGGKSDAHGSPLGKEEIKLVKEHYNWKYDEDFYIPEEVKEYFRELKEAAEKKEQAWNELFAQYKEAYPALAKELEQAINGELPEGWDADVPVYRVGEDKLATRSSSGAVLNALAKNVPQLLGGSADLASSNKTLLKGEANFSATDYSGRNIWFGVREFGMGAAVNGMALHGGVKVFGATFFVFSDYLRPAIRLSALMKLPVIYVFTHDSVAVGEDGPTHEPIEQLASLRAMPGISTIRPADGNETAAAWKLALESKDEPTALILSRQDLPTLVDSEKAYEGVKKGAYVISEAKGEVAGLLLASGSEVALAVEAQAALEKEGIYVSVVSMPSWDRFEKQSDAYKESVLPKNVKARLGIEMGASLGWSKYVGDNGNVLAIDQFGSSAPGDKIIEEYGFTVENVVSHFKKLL
T2 sequence (I3DZN5 entry or part of it): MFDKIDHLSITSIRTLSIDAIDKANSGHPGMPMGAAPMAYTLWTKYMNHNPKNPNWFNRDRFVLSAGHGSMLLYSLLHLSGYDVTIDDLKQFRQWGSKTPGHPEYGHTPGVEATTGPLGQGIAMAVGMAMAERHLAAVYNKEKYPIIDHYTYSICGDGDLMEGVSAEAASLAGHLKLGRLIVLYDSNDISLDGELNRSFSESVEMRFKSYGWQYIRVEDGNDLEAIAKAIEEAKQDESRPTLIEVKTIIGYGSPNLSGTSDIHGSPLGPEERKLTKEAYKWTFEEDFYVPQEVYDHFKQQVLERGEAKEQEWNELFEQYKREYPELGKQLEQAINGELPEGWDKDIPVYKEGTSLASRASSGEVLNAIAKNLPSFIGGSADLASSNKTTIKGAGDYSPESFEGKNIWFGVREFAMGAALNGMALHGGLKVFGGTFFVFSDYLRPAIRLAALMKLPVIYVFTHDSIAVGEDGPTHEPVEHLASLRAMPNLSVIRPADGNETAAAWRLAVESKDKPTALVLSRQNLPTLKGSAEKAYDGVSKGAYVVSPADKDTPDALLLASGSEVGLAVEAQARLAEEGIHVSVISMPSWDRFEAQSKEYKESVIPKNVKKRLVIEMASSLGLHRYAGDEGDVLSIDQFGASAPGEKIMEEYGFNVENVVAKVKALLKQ

Broadly, the % inhibition is the change of the read-out against control, counted positive when it falls. A high value points to strong suppression. Turning to `Nc1ncnc2c1ncn2[C@@H]1O[C@H](COP(=O)(O)OP(=O)(O)O)[C@@H](O)[C@H]1O` [ADP], the results for the “% inhibition” value at TKT^P and at TKT^C were 65% and 95%, respectively.

As for `Nc1ncnc2c1ncn2[C@@H]1O[C@H](COP(=O)(O)OP(=O)(O)OP(=O)(O)O)[C@@H](O)[C@H]1O` [ATP], the figures for the “% inhibition” value on TKT^P and at TKT^C were 65% and 75%, respectively.

The values above are taken from publication PMC3905653, “Characterization of two transketolases encoded on the chromosome and the plasmid pBM19 of the facultative ribulose monophosphate cycle methylotroph Bacillus methanolicus” (BMC Microbiology, 2014).
